Measured values from US20180369244A1, “BTK Inhibitors to Treat Solid Tumors Through Modulation of the Tumor Microenvironment” (Acerta Pharma B.V., priority 2014, published 2018).

Columns and labels:
B cell receptor = assay: Whole blood B cell receptor signalling, CD69 on CD19+ B cells; assay type: cell-based; conditions: 2 h incubation, anti-human IgD 18 h
Protocol: Blood from four healthy donors was incubated for 2 hours with the compounds shown over a concentration range, and then stimulated with anti-human IgD [10 μg/mL] for 18 hours. The mean fluorescent intensity (MFI) of CD69 (and CD86, data not shown) on gated CD19+ B cells was measured by flow cytometry. MFI values were normalized so that 100% represents CD69 level in stimulated cells without inhibitor, while 0% represents the unstimulated/no drug condition. […]

CD8+ T cells = assay: Cytotoxic T cell (CTL) assay; assay type: cell-based; conditions: 500 nM
Protocol: CD8^+ T cells have at least two primary effector functions: (1) produce large amounts of IFN-γ (which activates macrophages), and (2) cytolytic activity. […] The targets were B lymphoblasts from lipopolysaccharide (LPS) treated cultures. The assay was performed by incubating different ratios of effectors:targets for 4 hours.

[1] = system: GPVI platelet aggregation; assay: GPVI platelet aggregation (convulxin-induced); assay type: cell-based, human
Protocol: GPVI platelet aggregation was measured for Formula (II) and Formula (X) (ibrutinib). Blood was obtained from untreated humans, and platelets were purified from […] by centrifugation. Cells were resuspended to a final concentration of […] in buffer containing 145 mmol/L NaCl, 10 mmol/L HEPES, 0.5 mmol/L Na2HPO4, 5 mmol/L KCl, 2 mmol/L MgCl2, 1 mmol/L CaCl2, and 0.1% glucose, at pH 7.4. Stock solutions of Convulxin (CVX) GPVI were prepared on the day of experimentation and added to platelet suspensions 5 minutes (37° C., 1200 rpm) before the induction of aggregation. Aggregation was assessed with a Chronolog Lumi-Aggregometer (model 540 VS; Chronolog, Havertown, Pa.) and permitted to proceed for 6 minutes after the addition of agonist. The results are reported as maximum percent change in light transmittance from baseline with platelet buffer used as a reference.
In FIG. 23, the results of CVX-induced (250 ng/mL) human platelet aggregation results before and 15 minutes after administration of the BTK inhibitors to 6 healthy individuals are shown.

Raji cells = assay: Rituximab ADCC chromium release assay; assay type: cell-based, human; conditions: 1 μM
Description: Cell culture conditions were as follows. […] The HER18 cells were maintained in DEM supplemented with fetal bovine serum, penicillin-streptomycin and. Prior to assay, HER18 cells were harvested using trypsin-EDTA, washed with phosphate-buffered saline (PBS) containing 5% serum and viable cells were counted. For culture of primary target cells, peripheral blood from CLL patients was subject to density centrifugation to obtain peripheral blood mononuclear cells (PBMC). Cell preparations were washed and then subject to positive selection of CD5+CD19^+ CLL cells using magnetic beads (MACS, Miltenyi Biotech). Cell preparations were used fresh after selection. NK cells from CLL patients and healthy volunteers were enriched from peripheral blood collected in sodium citrate anti-coagulant tubes and then subject to density centrifugation. Removal of non NK cells was performed using negative selection by MACS separation. Freshly isolated NK cells were washed three times, enumerated, and then used immediately for ADCC assays.
ADCC assays were performed as follows. Briefly, target cells (Raji or primary CLL) were labeled by incubation at 37° C. with 100 μCi ^51Cr for 4 hours prior to co-culture with NK cells. Cells were washed, enumerated, and then added in triplicate to prepared 96-well plates containing treated NK cells at an effector:target (E:T) ratio of 25:1. […] The effect of NK cell natural cytotoxicity was assessed in wells containing no rituximab. Cultures were incubated at 37° C. for 4 hours, and then centrifuged. Supernatants were harvested and ^51Cr release was measured by liquid scintillation counting. All experiments were performed in triplicate.

EGFR = assay: EGF-induced EGFR phosphorylation in A431 cells (phosphoflow); assay type: cell-based, human
Protocol: Phosphoflow cytometry was performed with p-EGFR (Y1069). MFI values were normalized so that 100% represents the p-EGFR level in stimulated cells without inhibitor, while 0% represents the unstimulated/no drug condition.

NK cells = assay: Whole blood NK cell degranulation/ADCC assay, MEC-1 cells opsonised with obinutuzumab; assay type: cell-based, human; conditions: 1 h pretreatment, obinutuzumab 1 μg/mL, 4 h
Protocol: Degranulation in whole blood was performed as follows. […] Exponentially growing cells were used. […] A white blood cell (WBC) count of whole blood was performed. […] 170 μL aliquots of unmanipulated whole blood were incubated with 10 μL BTK inhibitors or X-VIVO 15 medium for one hour into a plate. […] The samples were placed in a 5% CO2 incubator for 4 hours at 37° C.
After 4 hours, the samples were mixed gently and 50 μL aliquots were removed from each well and placed in fluorescence-activated cell sorting (FACS) test tubes. A 20 μL aliquot of anti-CD56-APC antibody and anti-CD107a-PE antibody was added. The samples were incubated for 20 minutes at room temperature in the dark. An aliquot of 2 mL of FACS lysing solution (BD Biosceinces) was added. The samples were again incubated for 5 minutes, and then centrifuged at 2000 rpm for 5 minutes. Supernatant was discarded and the cell pellet was resuspended in 500 μL of PBS. The samples were analyzed on the flow cytometer for CD107a^+ NK cells (CD56+).

[2] = system: pancreatic cancer in KPC mice; assay: KPC pancreatic cancer model (spontaneous tumors); assay type: in vivo; conditions: 15 mg/kg BID oral
Protocol: The KPC mouse model recapitulates many of the molecular, histopathologic, and clinical features of human disease (Westphalen and Olive, Cancer J. 2012, 18, 502-510). Combination therapy with gemcitabine was also evaluated in this model. Mice were enrolled after identification of spontaneously appearing tumors in the pancreas that were >100 mm^3 (as assessed by high-resolution ultrasonography).

[3] = system: BCR activation markers CD69 and CD86; assay: In vivo potency, CD69 and CD86 expression after IgM stimulation; parameters: species or system mice; conditions: oral gavage, 3 h post-dose
Description: CD86 and CD69 are cell surface proteins that are BCR activation markers. […] BCR was stimulated with IgM and the expression of activation marker CD69 and CD86 are monitored by flow cytometry and to determine EC50 values.

CC#CC(=O)N1CCC[C@H]1c1nc(-c2ccc(C(=O)Nc3ccccn3)cc2)c2c(N)nccn12 [Formula (II), (S)-4-(8-amino-3-(1-(but-2-ynoyl)pyrrolidin-2-yl)imidazo[1,5-a]pyrazin-1-yl)-N-(pyridin-2-yl)benzamide]
EC50 (B cell receptor): 8.2 nM
CD8+ T cell function as % cytotoxicity (CD8+ T cells): no effect on CD8^+ T cell function
GPVI platelet aggregation ([1]; FIG. 22 and FIG. 23): does not
IC50 ([1]; Homo sapiens, Platelet, FIG. 22): 1150 nM
rituximab ADCC, NK cell activity (Raji cells; FIG. 31): not inhibited
antibody-dependent lysis of rituximab-coated Raji cells (Raji cells; healthy donor NK cells): not inhibited
inhibition of in vitro EGFR phosphorylation (EGFR; 10 μM): no inhibition
inhibition at 10 µM (EGFR; Homo sapiens, A-431, read-out: EGF-induced p-EGFR inhibition): 7%
reduction of obinutuzumab-stimulated NK cell degranulation (NK cells): minimal effect
CD8+ cells in tumor tissues [2]: significant increase
immunosuppressive TAMs, MDSCs and Tregs in tumor tissues [2]: significantly reduced
pancreatic cancer growth and animal survival [2]: substantially slowed pancreatic cancer growth and increased animal survival
survival at day 14 [2]: 6/6
survival at day 28 [2]: 5/6
average tumor volume at day 28 ([2]; predose average 165 mm^3): 272 mm^3
in vivo potency, inhibition of activation markers [3]: more potent at inhibiting expression of activation makers than ibrutinib
